Key:
[1] = target: T1, LysC; aspartokinase III (Escherichia coli, UniProt P08660); test: in vitro reaction, product confirmed by LC-MS; assay type: biochemical; conditions: product trapped with L-Cys as β-aspartyl cysteine
T1 sequence (P08660 2-449): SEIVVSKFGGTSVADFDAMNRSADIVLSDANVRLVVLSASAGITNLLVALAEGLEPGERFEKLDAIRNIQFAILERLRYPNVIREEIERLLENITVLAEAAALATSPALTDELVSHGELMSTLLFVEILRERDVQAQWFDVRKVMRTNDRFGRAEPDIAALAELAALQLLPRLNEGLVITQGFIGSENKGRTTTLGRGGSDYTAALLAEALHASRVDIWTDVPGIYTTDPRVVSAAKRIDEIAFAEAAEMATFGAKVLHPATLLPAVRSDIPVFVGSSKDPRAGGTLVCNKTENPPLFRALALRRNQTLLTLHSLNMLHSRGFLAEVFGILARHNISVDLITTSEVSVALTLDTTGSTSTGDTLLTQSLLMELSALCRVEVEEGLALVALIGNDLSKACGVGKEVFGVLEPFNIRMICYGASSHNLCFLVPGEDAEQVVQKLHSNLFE

[2] = target: T2, ProA(wt); γ-glutamyl phosphate reductase (Escherichia coli, UniProt P07004); test: NADPH oxidation in coupled assay with ProB; assay type: biochemical; conditions: γ-glutamyl phosphate formed in situ by ProB from L-Glu
T2 sequence (P07004 1-417): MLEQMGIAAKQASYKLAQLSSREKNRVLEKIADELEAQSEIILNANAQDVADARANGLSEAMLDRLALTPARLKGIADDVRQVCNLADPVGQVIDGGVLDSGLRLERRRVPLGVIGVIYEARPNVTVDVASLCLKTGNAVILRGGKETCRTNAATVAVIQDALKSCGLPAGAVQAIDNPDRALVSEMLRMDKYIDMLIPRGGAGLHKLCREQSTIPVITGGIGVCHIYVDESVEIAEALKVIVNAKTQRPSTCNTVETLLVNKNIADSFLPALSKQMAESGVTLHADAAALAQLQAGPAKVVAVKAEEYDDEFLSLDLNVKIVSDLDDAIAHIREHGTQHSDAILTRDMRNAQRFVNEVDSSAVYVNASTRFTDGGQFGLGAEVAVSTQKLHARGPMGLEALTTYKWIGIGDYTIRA

Row | Structure (SMILES) | in vitro reaction, product confirmed by LC-MS [1] | NADPH oxidation in coupled assay with ProB [2]
1 | N[C@@H](CC(=O)O)C(=O)O [L-Asp] | LysC from E. coli was used to convert L-Asp to β-aspartyl phosphate | –
2 | NC(=O)C1=CN([C@@H]2O[C@H](COP(=O)(O)OP(=O)(O)OC[C@H]3O[C@@H](n4cnc5c(N)ncnc54)[C@H](OP(=O)(O)O)[C@@H]3O)[C@@H](O)[C@H]2O)C=CC1 [NADPH] | – | A coupled in vitro assay, which measures NADPH oxidation by ProA(wt)
